Assay results reported in patent publication US20250092065A1, “2-(INDAZOL-5-YL)-6-(PIPERIDIN-4-YL)-1,7-NAPHTHYRIDINE DERIVATIVES AND RELATED COMPOUNDS AS MODULATORS FOR SPLICING NUCLEIC ACIDS AND FOR THE TREATMENT OF PROLIFERATIVE DISEASES” (REMIX THERAPEUTICS INC., priority 2022, published 2025).
Structures can show the parent of a compound that is named as a salt. Where two headings read alike, the source gives them in different places.

System: HTT mRNA
Assay: RT-qPCR splicing assay, HTT mRNA canonical (CJ) and alternative (AJ) junction
Format: cell-based, human
Conditions: Homo sapiens; for AC50: HTT alternative junction mRNA, read-out: HTT AJ (increase in AJ mRNA, AC50)
Method in brief: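 Splice switching quantified in compound-treated A673/K562 cells after 24 h exposure (top dose 10 uM, 3-fold steps, ≤0.25% DMSO), using CJ and AJ qPCR assays run at least in duplicate. RQ derived by 2^(−ΔΔCt), then percentage response.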

[1] = HTT canonical junction mRNA, RT-qPCR, read-out: HTT CJ (decrease in CJ mRNA levels, IC50)
[2] = canonical junction qPCR panel, Table 4, read-out: HTT IC50 (decrease in CJ mRNA levels)

Cc1c(O)c(-c2nc(C(N)=O)c3cc(N4CCNCC4)ccc3n2)cc2cn(C)nc12 [Compound 523, 2-(6-hydroxy-2,7-dimethylindazol-5-yl)-6-(piperazin-1-yl) quinazoline-4-carboxamide]
AC50 (RT-qPCR): 0.1 to 1 µM
IC50 [1]: 0.1 to 1 µM
IC50 [2]: 0.1 to 1 µM

Cc1c(O)c(-c2nc(C(=O)O)c3cc(N4CCNCC4)ccc3n2)cc2cn(C)nc12 [Compound 524, 2-(6-hydroxy-2,7-dimethylindazol-5-yl)-6-(piperazin-1-yl) quinazoline-4-carboxylic acid]
AC50 (RT-qPCR): > 10 µM
IC50 [1]: > 10 µM
IC50 [2]: > 10 µM

Cc1c(O)c(-c2ncc3cc(N4C[C@@H](C)N[C@@H](C)C4)ccc3n2)cc2cn(C)nc12 [Compound 525, 5-{6-[(3R,5S)-3,5-dimethylpiperazin-1-yl]quinazolin-2-yl}-2,7-dimethylindazol-6-ol]
AC50 (RT-qPCR): 0.1 to 1 µM
IC50 [1]: 0.1 to 1 µM
IC50 [2]: 0.1 to 1 µM

Cc1c(O)c(-c2ncc3nc(N4C[C@@H](C)N[C@@H](C)C4)ccc3n2)cc2cn(C)nc12 [Compound 526, 5-{6-[(3R,5S)-3,5-dimethylpiperazin-1-yl]pyrido[3,2-d]pyrimidin-2-yl}-2,7-dimethylindazol-6-ol]
AC50 (RT-qPCR): 1 to 10 µM
IC50 [1]: 0.1 to 1 µM
IC50 [2]: 0.1 to 1 µM

CNC(=O)c1nc(-c2cc3cn(C)nc3c(F)c2O)nc2ccc(N3C[C@@H](C)N[C@@H](C)C3)cc12 [Compound 527, 6-[(3R,5S)-3,5-dimethylpiperazin-1-yl]-2-(7-fluoro-6-hydroxy-2-methylindazol-5-yl)-N-methylquinazoline-4-carboxamide]
AC50 (RT-qPCR): 0.1 to 1 µM
IC50 [1]: < 0.1 µM
IC50 [2]: < 0.1 µM

CNC(=O)c1nc(-c2cc3cn(C)nc3c(F)c2O)nc2ccc(N3CCC(N(C)C)CC3)cc12 [Compound 528, 6-[4-(dimethylamino)piperidin-1-yl]-2-(7-fluoro-6-hydroxy-2-methylindazol-5-yl)-N-methylquinazoline-4-carboxamide]
AC50 (RT-qPCR): 1 to 10 µM
IC50 [1]: 0.1 to 1 µM
IC50 [2]: 0.1 to 1 µM

CNC(=O)c1nc(-c2cc3cn(C)nc3c(F)c2O)nc2ccc(N3CCN[C@@H](C)C3)cc12 [Compound 529, 2-(7-fluoro-6-hydroxy-2-methylindazol-5-yl)-N-methyl-6-[(3S)-3-methylpiperazin-1-yl]quinazoline-4-carboxamide]
AC50 (RT-qPCR): 0.1 to 1 µM
IC50 [1]: 0.1 to 1 µM
IC50 [2]: 0.1 to 1 µM

CNC(=O)c1nc(-c2cc3cn(C)nc3cc2O)nc2ccc(N3CCN[C@@H](C)C3)cc12 [Compound 530, 2-(6-hydroxy-2-methylindazol-5-yl)-N-methyl-6-[(3S)-3-methylpiperazin-1-yl]quinazoline-4-carboxamide]
AC50 (RT-qPCR): 1 to 10 µM
IC50 [1]: 1 to 10 µM
IC50 [2]: 1 to 10 µM

CNC(=O)c1nc(-c2cc3cn(C)nc3cc2O)nc2ccc(N3C[C@@H](C)N[C@@H](C)C3)cc12 [Compound 531, 6-[(3R,5S)-3,5-dimethylpiperazin-1-yl]-2-(6-hydroxy-2-methylindazol-5-yl)-N-methylquinazoline-4-carboxamide]
AC50 (RT-qPCR): > 10 µM
IC50 [1]: 1 to 10 µM
IC50 [2]: 1 to 10 µM

CNC(=O)c1nc(-c2cc3cn(C)nc3c(C)c2O)nc2ccc(N3CCNC4(CC4)C3)cc12 [Compound 532, 6-{4,7-diazaspiro[2.5]octan-7-yl}-2-(6-hydroxy-2,7-dimethylindazol-5-yl)-N-methylquinazoline-4-carboxamide]
AC50 (RT-qPCR): 0.1 to 1 µM
IC50 [1]: 0.1 to 1 µM
IC50 [2]: 0.1 to 1 µM

CNC(=O)c1nc(-c2cc3cn(C)nc3c(C)c2O)nc2ccc(N3CCNCC3)nc12 [Compound 533, 2-(6-hydroxy-2,7-dimethylindazol-5-yl)-N-methyl-6-(piperazin-1-yl)pyrido[3,2-d]pyrimidine-4-carboxamide]
AC50 (RT-qPCR): 1 to 10 µM
IC50 [1]: 1 to 10 µM
IC50 [2]: 1 to 10 µM

CNC(=O)c1nc(-c2cc3cn(C)nc3c(C)c2O)nc2ccc(N3C[C@@H](C)N[C@@H](C)C3)nc12 [Compound 534, 6-[(3R,5S)-3,5-dimethylpiperazin-1-yl]-2-(6-hydroxy-2,7-dimethylindazol-5-yl)-N-methylpyrido[3,2-d]pyrimidine-4-carboxamide]
AC50 (RT-qPCR): > 10 µM
IC50 [1]: > 10 µM
IC50 [2]: > 10 µM

CCNC(=O)c1nc(-c2cc3cn(C)nc3c(C)c2O)nc2ccc(N3C[C@@H](C)N[C@@H](C)C3)cc12 [Compound 535, 6-[(3R,5S)-3,5-dimethylpiperazin-1-yl]-N-ethyl-2-(6-hydroxy-2,7-dimethylindazol-5-yl)quinazoline-4-carboxamide]
AC50 (RT-qPCR): 0.1 to 1 µM
IC50 [1]: < 0.1 µM
IC50 [2]: < 0.1 µM

CNC(=O)c1nc(-c2cc3cn(C)nc3c(C)c2O)nc2ccc(N3CC[C@@H](NC)C3)cc12 [Compound 536, 2-(6-hydroxy-2,7-dimethylindazol-5-yl)-N-methyl-6-[(3R)-3-(methylamino)pyrrolidin-1-yl]quinazoline-4-carboxamide]
AC50 (RT-qPCR): < 0.1 µM
IC50 [1]: < 0.1 µM
IC50 [2]: < 0.1 µM

CNC(=O)c1nc(-c2cc3cn(C)nc3c(C)c2O)nc2ccc(N3CC[C@H](NC)C3)cc12 [Compound 537, 2-(6-hydroxy-2,7-dimethylindazol-5-yl)-N-methyl-6-[(3S)-3-(methylamino)pyrrolidin-1-yl]quinazoline-4-carboxamide]
AC50 (RT-qPCR): 0.1 to 1 µM
IC50 [1]: < 0.1 µM
IC50 [2]: < 0.1 µM

Cc1c(O)c(-c2nc(-c3c[nH]nn3)c3cc(N4CCNCC4)ccc3n2)cc2cn(C)nc12 [Compound 538, 2,7-dimethyl-5-[6-(piperazin-1-yl)-4-(1H-1,2,3-triazol-4-yl)quinazolin-2-yl]indazol-6-ol hydrochloride]
AC50 (RT-qPCR): 1 to 10 µM
IC50 [1]: 1 to 10 µM
IC50 [2]: 1 to 10 µM

Cc1c(O)c(-c2nc(C(=O)NC(C)C)c3cc(N4C[C@@H](C)N[C@@H](C)C4)ccc3n2)cc2cn(C)nc12 [Compound 539, 6-[(3R,5S)-3,5-dimethylpiperazin-1-yl]-2-(6-hydroxy-2,7-dimethylindazol-5-yl)-N-isopropylquinazoline-4-carboxamide]
AC50 (RT-qPCR): < 0.1 µM
IC50 [1]: < 0.1 µM
IC50 [2]: < 0.1 µM

Cc1c(O)c(-c2nc(C(=O)NC3CCC3)c3cc(N4C[C@@H](C)N[C@@H](C)C4)ccc3n2)cc2cn(C)nc12 [Compound 540]
AC50 (RT-qPCR): 0.1 to 1 µM
IC50 [1]: 1 to 10 µM
IC50 [2]: 1 to 10 µM

Cc1c(O)c(-c2nc(-c3nn[nH]n3)c3cc(N4CCNCC4)ccc3n2)cc2cn(C)nc12 [Compound 541, 2,7-dimethyl-5-[6-(piperazin-1-yl)-4-(2H-1,2,3,4-tetrazol-5-yl)quinazolin-2-yl]indazol-6-ol]
AC50 (RT-qPCR): 1 to 10 µM
IC50 [1]: 1 to 10 µM
IC50 [2]: 1 to 10 µM

C[C@@H]1CN(c2ccc3nc(-c4cc5cn(C)nc5c(F)c4O)nc(C4CC4)c3c2)C[C@H](C)N1 [Compound 542, 5-{4-cyclopropyl-6-[(3R,5S)-3,5-dimethylpiperazin-1-yl]quinazolin-2-yl}-7-fluoro-2-methylindazol-6-ol]
AC50 (RT-qPCR): 1 to 10 µM
IC50 [1]: 1 to 10 µM
IC50 [2]: 1 to 10 µM

CN[C@@H]1CCN(c2ccc3nc(-c4cc5cn(C)nc5c(F)c4O)nc(C4CC4)c3c2)C1 [Compound 543, 5-{4-cyclopropyl-6-[(3R)-3-(methylamino)pyrrolidin-1-yl]quinazolin-2-yl}-7-fluoro-2-methylindazol-6-ol]
AC50 (RT-qPCR): < 0.1 µM
IC50 [1]: < 0.1 µM
IC50 [2]: < 0.1 µM

Cc1cn2cc(-c3ccc4cc(N5C[C@@H](C)N[C@@H](C)C5)cc(F)c4n3)cc(F)c2n1 [Compound 544, 6-[(3R,5S)-3,5-dimethylpiperazin-1-yl]-8-fluoro-2-{8-fluoro-2-methylimidazo[1,2-a]pyridin-6-yl}quinoline]
AC50 (RT-qPCR): 0.1 to 1 µM
IC50 [1]: 0.1 to 1 µM
IC50 [2]: 0.1 to 1 µM

CNC(=O)c1nc(-c2cc3cn(C)nc3c(C)c2O)nc2ccc(N3C[C@H](C)N[C@@H](C)C3)cc12 [Compound 652, 6-[(3S,5S)-3,5-dimethylpiperazin-1-yl]-2-(6-hydroxy-2,7-dimethylindazol-5-yl)-N-methylquinazoline-4-carboxamide]
AC50 (RT-qPCR): 0.1 to 1 µM
IC50 [1]: 0.1 to 1 µM
IC50 [2]: 0.1 to 1 µM

Cc1c(O)c(-c2ncc3cc(N4C[C@H](C)N[C@@H](C)C4)ccc3n2)cc2cn(C)nc12 [Compound 660, 5-{6-[(3S,5S)-3,5-dimethylpiperazin-1-yl]quinazolin-2-yl}-2,7-dimethylindazol-6-ol]
AC50 (RT-qPCR): 0.1 to 1 µM
IC50 [1]: 0.1 to 1 µM
IC50 [2]: 0.1 to 1 µM

CNC(=O)c1nc(-c2cc3cn(C)nc3c(C)c2O)nc2ccc(N3CCC(N4CCC4)CC3)cc12 [Compound 706]
AC50 (RT-qPCR): 1 to 10 µM
IC50 [1]: 0.1 to 1 µM
IC50 [2]: 0.1 to 1 µM

C[C@@H]1CN(c2ccc3nc(-c4cc5cn(C)nc5c(F)c4O)nc(C#N)c3c2)C[C@H](C)N1 [Compound 707, 6-[(3R,5S)-3,5-dimethylpiperazin-1-yl]-2-(7-fluoro-6-hydroxy-2-methylindazol-5-yl) quinazoline-4-carbonitrile]
AC50 (RT-qPCR): 0.1 to 1 µM
IC50 [1]: 0.1 to 1 µM
IC50 [2]: 0.1 to 1 µM

C[C@@H]1CN(c2ccc3nc(-c4cc5cn(C)nc5c(F)c4O)nc(C(N)=O)c3c2)C[C@H](C)N1 [Compound 712, 6-[(3R,5S)-3,5-dimethylpiperazin-1-yl]-2-(7-fluoro-6-hydroxy-2-methylindazol-5-yl) quinazoline-4-carboxamide]
AC50 (RT-qPCR): 1 to 10 µM
IC50 [1]: 1 to 10 µM
IC50 [2]: 1 to 10 µM

CC(=O)c1nc(-c2cc3cn(C)nc3c(F)c2O)nc2ccc(N3C[C@@H](C)N[C@@H](C)C3)cc12 [Compound 717, 1-{6-[(3R,5S)-3,5-dimethylpiperazin-1-yl]-2-(7-fluoro-6-hydroxy-2-methylindazol-5-yl)quinazolin-4-yl}ethanone]
AC50 (RT-qPCR): 0.1 to 1 µM
IC50 [1]: 0.1 to 1 µM
IC50 [2]: 0.1 to 1 µM
